Values quoted from earlier work as cited in PubChem BioAssay AID1259410 (Chemical Carcinogenesis Research Information System (CCRIS), 2018).

System: rodent tumor promotion studies, tumor incidence
Assay: CCRIS tumor promotion studies

In the case of O=NO, the outcome (Carcinogen: 1,2-DIMETHYLHYDRAZINE [540-73-8], Doses [Carcinogen]: 8 MG/KG, Doses [Promoter]: 50, 500 MG, Route [Promoter]: INJECTION, Species: MOUSE, Strain/Sex: (C57B1 X CBA)/MALE) is listed as “liver: hepatocarcinoma, hepatic hemangioendothelioma; kidney: renal adenoma; inc”, the outcome (Carcinogen: Diethyl nitrosamine (DEN), 55-18-5 and dimethylhydrazine (DMH), 30260-66-3, Carcinogen: Diethyl nitrosamine (DEN), 55-18-5 and dimethylhydrazine (DMH), 30260-66-3, Doses [Carcinogen]: DEN, 200 mg/kg once at -3 days, DMH, 40 mg/kg 4 injections between day 0 and wk 2, Doses [Promoter]: 0, 0.1, 0.2% in drinking water from week 2 to 29, study duration 29 wk, Doses [Promoter]: 0, 0.1, 0.2% in drinking water from week 2 to 29, study duration 29 wk, Route [Carcinogen]: Intraperitoneal (DEN) and subcutaneous (DMH), Route [Promoter]: Oral, Species: Rat, Strain/Sex: F344/Du Crj (20/group)) is listed as “liver: hepatocellular adenoma and carcinoma. colon adenoma and carcinoma. incide” and the outcome (Carcinogen: N-METHYL-N'-NITRO-N-NITROSOGUANIDINE, 70-25-7, Doses [Carcinogen]: 150 MG/KG BW IN DMSO:WATER (1:1) ONCE, Doses [Promoter]: 0, 0.3% IN DRINKING WATER BEGINNING 1 WK POST CARCINOGEN DOSE (STUDY DURATION: 52 WK), Route [Carcinogen]: GAVAGE, Route [Promoter]: ORAL, Species: RAT, Strain/Sex: F344/MALE) is listed as “forestomach: papilloma, squamous cell carcinoma”. The outcome (Carcinogen: N-bis(2-hydroxypropyl)nitrosamine (DHPN) (53609-64-6), Doses [Carcinogen]: 0.1% (w/v) in drinking water for 3 wk, then surgery for acid reflux esophagitis, study duration 34 wk, Doses [Promoter]: 0 (basal diet), 0.2% sodium nitrite, 1% ascorbic acid with 0.2% sodium nitrite, study duration 32 wk after first promote, Doses [Promoter]: 0 (basal diet), 0.2% sodium nitrite, 1% ascorbic acid with 0.2% sodium nitrite, study duration 32 wk after first promote, Route [Carcinogen]: Oral, Route [Promoter]: Oral, Species: Rat, Strain/Sex: F344/Male (24/group)) was “esophagus (p1-p4): papilloma; significant only for combined treatment in p4 segm”, the outcome (Carcinogen: N-methyl-N'-nitro-N-nitrosoguanidine (70-25-7), Doses [Carcinogen]: 0.01% in drinking water for 10 wk for initiation of glandular stomach tumors, 100 mg/kg intragastrically after 16 hr st, Doses [Promoter]: 0.05%, 0.1%, or 0.2% in drinking water from wk 11 to end of study in combination with 0.1% or 1.0% vitamin C in diet (, Route [Carcinogen]: Oral and Intragastric, Route [Promoter]: Oral, Species: Rat, Strain/Sex: F344/Male (15/15)/(14/15)(15/15)(15/15)(15/15)(15/15)(14/15)) was “forestomach: papilloma, squamous cell carcinoma increase in incidence and/or sev” and the outcome (Carcinogen: URETHANE, 51-79-6, Doses [Carcinogen]: 0.5 MG/G BW 1/WK FOR 2 WK, Doses [Promoter]: 0, 50 MG/L IN DRINKING WATER FOR THE DURATION OF STUDY BEGINNING 4 WK PRIOR TO CARCINOGEN TREATMENT (STUDY DURATION: 210, Route [Carcinogen]: INTRAPERITONEAL, Route [Promoter]: ORAL, Species: MOUSE, Strain/Sex: A/SNELL/FEMALE) was “lung: adenoma”. For the same compound, the outcome (Carcinogen: URETHANE, 51-79-6, Doses [Carcinogen]: 0.5 MG/G BW 1/WK FOR 2 WK, Doses [Promoter]: 0, 50 MG/L IN DRINKING WATER FOR THE DURATION OF STUDY BEGINNING 4 WK PRIOR TO CARCINOGEN TREATMENT (STUDY DURATION: 210, Route [Carcinogen]: INTRAPERITONEAL, Route [Promoter]: ORAL, Species: MOUSE, Strain/Sex: C57BL X CBA/ FEMALE) was “lung: adenoma”, the outcome (Carcinogen: URETHANE, 51-79-6, Doses [Carcinogen]: 0.5 MG/G BW/WK FOR 2 WK, Doses [Promoter]: 0, 50, 500 MG/L IN DRINKING WATER FOR THE DURATION OF STUDY BEGINNING 4 WK PRIOR TO CARCINOGEN TREATMENT (STUDY DURATION, Doses [Promoter]: 0, 50, 500 MG/L IN DRINKING WATER FOR THE DURATION OF STUDY BEGINNING 4 WK PRIOR TO CARCINOGEN TREATMENT (STUDY DURATION, Route [Carcinogen]: INTRAPERITONEAL, Route [Promoter]: ORAL, Species: MOUSE, Strain/Sex: A/SNELL) was “lung: adenoma” and the outcome (Carcinogen: URETHANE, 51-79-6, Doses [Carcinogen]: 0.5 MG/G BW/WK FOR 2 WK, Doses [Promoter]: 0, 50, 500 MG/L IN DRINKING WATER FOR THE DURATION OF STUDY BEGINNING 4 WK PRIOR TO CARCINOGEN TREATMENT (STUDY DURATION, Doses [Promoter]: 0, 50, 500 MG/L IN DRINKING WATER FOR THE DURATION OF STUDY BEGINNING 4 WK PRIOR TO CARCINOGEN TREATMENT (STUDY DURATION, Route [Carcinogen]: INTRAPERITONEAL, Route [Promoter]: ORAL, Species: MOUSE, Strain/Sex: C57BLXCBA) was “lung: adenoma”.
For O=C1C=CC(=O)c2c(O)cccc21, the outcome (Carcinogen: 7,12-DIMETHYLBENZ[A]ANTHRACENE, 57-97-6, Doses [Carcinogen]: 25 NMOL IN 0.2 ML ACETONE ONCE, Doses [Promoter]: 440, 880, 1760 NMOL/MOUSE 1/WK FOR 40 WK BEGINNING 2 WK POST CARCINOGEN DOSE (STUDY DURATION: 42 WK), Doses [Promoter]: 440, 880, 1760 NMOL/MOUSE 1/WK FOR 40 WK BEGINNING 2 WK POST CARCINOGEN DOSE (STUDY DURATION: 42 WK), Route [Carcinogen]: DERMAL, Route [Promoter]: DERMAL, Species: MOUSE, Strain/Sex: SENCAR/FEMALE) is given as “skin: papilloma”, the outcome (Carcinogen: 7,12-DIMETHYLBENZ[A]ANTHRACENE, 57-97-6, Doses [Carcinogen]: 25 NMOL IN 0.2 ML ACETONE ONCE, Doses [Promoter]: 1760 NMOL/MOUSE 2/WK FOR 40 WK BEGINNING 2 WK POST CARCINOGEN DOSE (STUDY DURATION: 42 WK), Route [Carcinogen]: DERMAL, Route [Promoter]: DERMAL, Species: MOUSE, Strain/Sex: SENCAR/FEMALE) is given as “skin: papilloma” and the outcome (Carcinogen: 7,12-DIMETHYLBENZ[A]ANTHRACENE, 57-97-6, Doses [Carcinogen]: 25 NMOL IN 0.2 ML ACETONE ONCE, Doses [Promoter]: 1760 NMOL/MOUSE 3/WK FOR 40 WK BEGINNING 2 WK POST CARCINOGEN DOSE (STUDY DURATION: 42 WK), Route [Carcinogen]: DERMAL, Route [Promoter]: DERMAL, Species: MOUSE, Strain/Sex: SENCAR/FEMALE) is given as “skin: papilloma”. For the same compound, the outcome (Carcinogen: 7,12-DIMETHYLBENZ[A]ANTHRACENE, 57-97-6, Doses [Carcinogen]: 25 NMOL IN 0.2 ML ACETONE ONCE, Doses [Promoter]: 1760 NMOL/MOUSE 3/WK FOR 60 WK BEGINNING 2 WK POST CARCINOGEN DOSE (STUDY DURATION: 60 WK), Route [Carcinogen]: DERMAL, Route [Promoter]: DERMAL, Species: MOUSE, Strain/Sex: SENCAR/FEMALE) was “skin: carcinoma”.
In the case of CCCCCCCC/C=C\CCCCCCCC(=O)O, the outcome (Carcinogen: 7,12-DIMETHYLBENZ(A)ANTHRACENE, Doses [Carcinogen]: TOP, Route [Carcinogen]: DERMAL, Route [Promoter]: DERMAL, Species: MOUSE, Strain/Sex: MALE,FEMALE) is listed as “integumentary system (skin)”.
For CC(=O)[O-].CC(=O)[O-].[OH-].[OH-].[OH-].[OH-].[Pb+2].[Pb+2].[Pb+2], the outcome (Carcinogen: N-ETHYL-N-(2-HYDROXYETHYL)NITROSAMINE, Doses [Carcinogen]: 0.1% IN DRINKING WATER FOR 1 WK, Doses [Promoter]: 0.1% IN DIET FOR 35 WK, Route [Carcinogen]: ORAL, Route [Promoter]: ORAL, Species: RAT, Strain/Sex: F344/MALE) is listed as “kidney: renal cell tumor” and the outcome (Carcinogen: N-ETHYL-N-(2-HYDROXYETHYL)NITROSAMINE, Doses [Carcinogen]: 500 PPM IN DIET FOR TWO WK, Doses [Promoter]: 1000 PPM IN DIET FOR 20 WK, Route [Carcinogen]: ORAL, Route [Promoter]: ORAL, Species: RAT, Strain/Sex: WISTAR) is listed as “kidney: adenoma, adenocarcinoma”.
For Cc1c2ccccc2c(C)c2c1ccc1ccccc12, the outcome (Carcinogen: Diethylstilbestrol, 56-53-1, Doses [Carcinogen]: 0, 0.1, 1, 10, 100 ug in 0.05 ml sesame oil once at birth, Doses [Carcinogen]: 0, 0.1, 1, 10, 100 ug in 0.05 ml sesame oil once at birth, Doses [Promoter]: 10 mg in 1 ml sesame oil once by gastric intubation at 50 days of age, study duration 175 or 300 days of age, Route [Carcinogen]: Subcutaneous, Route [Promoter]: Oral, Species: Rat, Strain/Sex: Sprague-Dawley/Female (22/control group; 15; 21; 13; 16/experimental group)) is listed as “mammary carcinomas: 50, 54, 91, 39, 19% at 175 days and 77, 87, 100, 85, 75% at”.
